Assay results taken from PMC11468809, “An Outer Membrane Vesicle‐Based Permeation Assay (OMPA) for Assessing Bacterial Bioavailability” (Advanced Healthcare Materials, 2021).
Blank lines part the entries; values can stand above or below the compound they belong to.

What was measured:
[1] = Membrane permeabilization experiment on OMV-derived membrane; assay type: in vitro ADME, Escherichia coli; details: for effect of membrane-perturbating agent on the OMV-derived model: permeability of fusidic acid or fluorescein as readout
Protocol: Experiments were conducted on OMVs of E. coli BL21 DE3 Omp8 as stated above with some modifications. […] After 30 min, solutions were removed and the standard protocol was followed employing 200 × 10^−6 M fusidic acid solution and sampling after 5, 10, 15, 20, 25, 30, 45, and 60 min. The quantification was done via LC–MS/MS.
(§1) Afterward 240 µL of 10 × 10^−6 M fluorescein solution in PBS (pH 7.4) was added and 40 µL samples were drawn after 5, 10, 15, 20, 25, 30, 45, and 60 min and diluted 1 in 5 prior to fluorimetric quantification (λ ex = 485 nm, λ em = 530 nm).

[2] = Permeation across porin-deficient E. coli BL21 DE3 Omp8 OMV-derived membrane model; details: standard permeation assay, 200 × 10^−6 M
Protocol: (§2) 30 µL of the OMV or liposome suspension were given on top of membrane filters of a 96‐well filter plate (MultiScreen 96‐well filter plates with 0.4 µm PCTE membrane). Afterwards, filters were dried at 37°C inside a Memmert UF55 universal oven (fan at 100%). This process was repeated another two times. A six‐fold coating procedure was only followed for SEM‐imaging purposes. For permeation studies, the obtained coatings were covered with 40 µl of 0.5% w/v agarose solution using a direct diplacement pipette. Prior to permeation studies, the bottom of the coated filter was also coated with a thin film of 0.5% w/v agarose using a small brush.
(§3) Coated wells were incubated on the apical and basolateral side for 30 min with PBS (pH 7.4) at 37°C while shaken at 180 rpm. After incubation, 230 µL of pre‐warmed 200 × 10^−6 M antibiotic donor solution (37°C) replaced the PBS in the respective donor wells, while 30 µL were immediately removed and diluted 1:10. The absorbance of these dilutions was measured in a receiver plate using a Tecan Infinite 200 PRO (Tecan Trading AG, Maennedorf, Switzerland) plate reader. (Table S1, Supporting Information) 300 µL of fresh PBS were given into the acceptor wells of the receiver plate followed by absorbance measurements. Donor and acceptor plates were reassembled, incubated, and disassembled after 10, 20, 30, 45, 60, 90, and 120 min to measure the absorbance in the acceptor wells.

[3] = Membrane permeabilization experiment on bacteriomimetic liposome-derived model; assay type: in vitro ADME; details: fluorescein 10 × 10^−6 M after 30 min incubation with 83.1 × 10^−6 M PMB vs PBS
Protocol: as §1

[4] = Comparison of P app among four vesicle-derived membrane models; assay type: in vitro ADME; details: 200 × 10^−6 M; Figure 11
Source text: This process was repeated another two times.

[5] = not told
Protocol: as §2
as §3, with “After incubation, 230 µL of pre‐warmed 200 × 10^−6 M antibiotic donor solution (37°C) replaced the PBS in the respective donor wells, while 30 µL were immediately removed and diluted 1:10.” left out

[6] = Porin-blocking experiment with spermine on porin-containing membrane model; details: 15 × 10^−6 M norfloxacin, 140 × 10^−3 M spermine; Figure 10B
Protocol: (§4) Experiments were performed on OMVs of E. coli strains BL21 DE3 and BL21 DE3 Omp8. The procedure followed the standard protocol for permeability studies with some modifications. The membranes were incubated on both sides for 30 min either with 140 × 10^−3 M spermine solution in PBS (pH7.4) or blank PBS. […] Samples of 40 µL were taken after 5, 10, 15, 20, 25, and 30 min and analyzed by LC–MS/MS.
(§5) An Accela UHPLC System‐Coupled TSQ Quantum Access Max tandem quadrupole mass spectrometer (both from Thermo Fisher Scientific, Waltham, MA, USA) was employed. The entire system was operated via Xcalibur 219 software (Thermo Fisher Scientific, Waltham, MA, USA). The detection of the compounds in the MS happened after heated electrospray ionization (H‐ESI) in positive ion mode. The chromatographic analysis was performed with a binary solvent mixture using optionally acetonitrile + 0.1% formic acid (A), MilliQ‐water + 0.1% formic acid (B), methanol + 0.1% formic acid (C), or ammonium formate buffer (10 × 10^−3 M, pH 3, D). […]
(§6) Raw data obtained from the respective analytical readouts of transport studies were converted to their corresponding concentration via external calibration. […]
(§7) The apparent permeability coefficient (P app) was calculated according to the following formula: (2) Pappcm∗s^−1=J/c0 where c 0 is the initial donor concentration (µg cm^− ^3) and J (µg cm^− ^2*s) the compound flux.

[7] = Porin-blocking experiment with spermine on porin-deficient membrane model; details: 15 × 10^−6 M norfloxacin, no spermine
Protocol: as §4, §5, §6, §7

[8] = Impact of agarose gel and vesicle coating on compound permeation; details: P app; 0.5% w/v agarose gel; Figure 7
Protocol: as §2, §3

Compound: CC(=O)O[C@H]1C[C@@]2(C)[C@@H](C[C@@H](O)[C@H]3[C@@]4(C)CC[C@@H](O)[C@@H](C)[C@@H]4CC[C@@]32C)/C1=C(\CCC=C(C)C)C(=O)O [Fusidic acid]
change in permeability after membrane-perturbating agent ([1]; fusidic acid 200 × 10^−6 M after 30 min incubation with 103.8 × 10^−6 M PMBN vs PBS): none of the membrane‐perturbating agents caused significant changes

Compound: O=C(N[C@H](CO)[C@H](O)c1ccc([N+](=O)[O-])cc1)C(Cl)Cl [chloramphenicol]
permeability compared with the porin-containing BL21 DE3 OMV-derived model [2]: did not lead to a significant drop of permeation

Compound: O=C1OC2(c3ccc(O)cc3Oc3cc(O)ccc32)c2ccccc21 [fluorescein]
permeation after treatment with PMB [3]: permeated significantly slower | change in permeability after membrane-perturbating agent ([1]; fluorescein 10 × 10^−6 M after 30 min incubation with 83.1 × 10^−6 M PMB vs PBS): none of the membrane‐perturbating agents caused significant changes

Compound: CCn1cc(C(=O)O)c(=O)c2ccc(C)nc21 [nalidixic acid]
difference in permeability throughout the OMV- and the bacteriomimetic liposome-based model [4]: no significant difference | permeability across the eukaryotic membrane model compared with the other models [5]: increased

Compound: CCn1cc(C(=O)O)c(=O)c2cc(F)c(N3CCNCC3)cc21 [norfloxacin]
permeability coefficients in presence vs absence of spermine [6]: significantly different | permeability compared with the porin-containing model [7]: significantly decreased permeability | permeability compared with the porin-containing BL21 DE3 OMV-derived model [2]: lower

permeability with the vesicle coating compared to pure agarose gel coating [8]: significantly lower
Compound: CO[C@@H]1[C@@H](OC(N)=O)[C@@H](O)[C@H](Oc2ccc3c(O)c(NC(=O)c4ccc(O)c(CC=C(C)C)c4)c(=O)oc3c2C)OC1(C)C [novobiocin]

Compound: CO[C@H]1/C=C/O[C@@]2(C)Oc3c(C)c(O)c4c(O)c(c(/C=N/N5CCN(C)CC5)c(O)c4c3C2=O)NC(=O)/C(C)=C\C=C\[C@H](C)[C@H](O)[C@@H](C)[C@@H](O)[C@@H](C)[C@H](OC(C)=O)[C@@H]1C [rifampicin]
difference in permeability throughout the OMV- and the bacteriomimetic liposome-based model [4]: no significant difference | permeability across the eukaryotic membrane model compared with the other models [5]: comparable permeability | permeability with the vesicle coating compared to pure agarose gel coating [8]: significantly lower

Compound: CN(C)[C@@H]1C(O)=C(C(N)=O)C(=O)[C@@]2(O)C(O)=C3C(=O)c4c(O)cccc4[C@@](C)(O)[C@H]3C[C@@H]12 [tetracycline]
permeability compared with the porin-containing BL21 DE3 OMV-derived model [2]: did not lead to a significant drop of permeation | permeability with the vesicle coating compared to pure agarose gel coating [8]: significantly lower

Compound: CN[C@H](CC(C)C)C(=O)N[C@H]1C(=O)N[C@@H](CC(N)=O)C(=O)N[C@H]2C(=O)N[C@H]3C(=O)N[C@H](C(=O)N[C@H](C(=O)O)c4cc(O)cc(O)c4-c4cc3ccc4O)[C@H](O)c3ccc(c(Cl)c3)Oc3cc2cc(c3O[C@@H]2O[C@H](CO)[C@@H](O)[C@H](O)[C@H]2O[C@H]2C[C@](C)(N)[C@H](O)[C@H](C)O2)Oc2ccc(cc2Cl)[C@H]1O [vancomycin]
trend of permeability the fewer outer membrane features the model has [4]: gradual decrease of permeability

Compound: PMB nonapeptide [PMBN]
effect of membrane-perturbating agent on the OMV-derived model [1]: lack of effect

Compound: Polymyxin B [PMB]
effect of membrane-perturbating agent on the OMV-derived model [1]: lack of effect
